Activity calls are given as the source filed them. The rule behind the calls is not given here.
What was measured:
[1] = Tmax in cannulated Sprague Dawley rat at 10 mg/kg administered through oral gavage by LC/MS/MS analysis; type: ADME, organism-based; conditions: in vivo
[2] = target: CYP1A2 (Homo sapiens, UniProt P05177); assay: Inhibition of CYP1A2 (unknown origin) at 10 uM; type: ADME
[3] = target: CYP2C9 (Homo sapiens, UniProt P11712); assay: Inhibition of CYP2C9 (unknown origin) at 10 uM; type: ADME
[4] = target: CYP2D6 (Homo sapiens, UniProt P10635); assay: Inhibition of CYP2D6 (unknown origin) at 10 uM; type: ADME
[5] = target: CYP3A4 (Homo sapiens, UniProt P08684); assay: Inhibition of CYP3A4 (unknown origin) at 10 uM; type: ADME
[6] = target: CYP2C19 (Homo sapiens, UniProt P33261); assay: Inhibition of CYP2C19 (unknown origin) at 10 uM; type: ADME
[7] = Cmax in cannulated Sprague Dawley rat at 10 mg/kg administered through oral gavage by LC/MS/MS analysis; type: ADME, organism-based; set-up: dose 10 mg/kg, route oral; conditions: in vivo
[8] = Half life in cannulated Sprague Dawley rat at 10 mg/kg administered through oral gavage by LC/MS/MS analysis; type: ADME, organism-based; conditions: in vivo
[9] = AUCt in cannulated Sprague Dawley rat at 10 mg/kg administered through oral gavage by LC/MS/MS analysis; type: ADME, organism-based; conditions: in vivo
[10] = AUCinfinity in cannulated Sprague Dawley rat at 10 mg/kg administered through oral gavage by LC/MS/MS analysis; type: ADME, organism-based; set-up: dose 10 mg/kg, time infinity, route oral; conditions: in vivo
[11] = test system: NCI-H3122; assay: Antitumor activity against human NCI-H3122 cells xenografted in SCID mouse assessed as tumor growth inhibition at 50 mg/kg, po administered qd for 14 days; type: functional, organism-based
[12] = test system: NCI-H3122; assay: Antitumor activity against human NCI-H3122 cells xenografted in SCID mouse assessed as tumor growth inhibition at 25 mg/kg, po administered qd for 14 days; type: functional, organism-based
[13] = target: Focal adhesion kinase 1 (Homo sapiens) (UniProt Q05397); assay: Inhibition of human FAK at 1 uM after 30 mins by fluorescence assay in presence of ATP
[14] = target: Insulin receptor (Homo sapiens) (UniProt P06213); assay: Inhibition of human IR at 1 uM after 30 mins by fluorescence assay in presence of ATP
[15] = target: Activated CDC42 kinase 1 (Homo sapiens) (UniProt Q07912); assay: Inhibition of human ACK1 at 1 uM after 30 mins by fluorescence assay in presence of ATP
[16] = target: Fibroblast growth factor receptor 1 (Homo sapiens) (UniProt P11362); assay: Inhibition of human FGFR1 at 1 uM after 30 mins by fluorescence assay in presence of ATP
Sequence of Fibroblast growth factor receptor 1 (Homo sapiens) (P11362 22-822 limits assumed): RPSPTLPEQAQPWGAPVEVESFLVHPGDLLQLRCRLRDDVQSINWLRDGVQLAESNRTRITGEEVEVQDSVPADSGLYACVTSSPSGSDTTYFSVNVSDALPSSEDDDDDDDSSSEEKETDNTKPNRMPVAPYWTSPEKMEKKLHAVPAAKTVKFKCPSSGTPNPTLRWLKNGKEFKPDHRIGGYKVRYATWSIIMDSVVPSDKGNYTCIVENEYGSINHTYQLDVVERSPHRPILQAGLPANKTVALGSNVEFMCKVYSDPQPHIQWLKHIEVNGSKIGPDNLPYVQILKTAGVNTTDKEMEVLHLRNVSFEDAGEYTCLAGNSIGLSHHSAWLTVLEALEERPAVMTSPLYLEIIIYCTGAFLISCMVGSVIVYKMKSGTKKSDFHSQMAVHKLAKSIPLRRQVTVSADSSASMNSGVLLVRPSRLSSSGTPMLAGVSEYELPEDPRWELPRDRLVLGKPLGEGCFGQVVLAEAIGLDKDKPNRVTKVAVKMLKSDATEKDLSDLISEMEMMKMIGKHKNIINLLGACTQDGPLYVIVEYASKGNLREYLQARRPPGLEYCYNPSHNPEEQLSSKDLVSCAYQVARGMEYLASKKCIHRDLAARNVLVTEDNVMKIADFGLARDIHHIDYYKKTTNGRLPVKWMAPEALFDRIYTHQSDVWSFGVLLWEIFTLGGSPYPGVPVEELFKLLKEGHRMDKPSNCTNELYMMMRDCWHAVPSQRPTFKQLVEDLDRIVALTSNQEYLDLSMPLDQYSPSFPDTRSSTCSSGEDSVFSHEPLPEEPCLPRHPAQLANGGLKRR

[17] = target: Receptor-type tyrosine-protein kinase FLT3 (Homo sapiens) (UniProt P36888); assay: Inhibition of human FLT3 at 1 uM after 30 mins by fluorescence assay in presence of ATP
Sequence of Receptor-type tyrosine-protein kinase FLT3 (Homo sapiens) (P36888 whole entry): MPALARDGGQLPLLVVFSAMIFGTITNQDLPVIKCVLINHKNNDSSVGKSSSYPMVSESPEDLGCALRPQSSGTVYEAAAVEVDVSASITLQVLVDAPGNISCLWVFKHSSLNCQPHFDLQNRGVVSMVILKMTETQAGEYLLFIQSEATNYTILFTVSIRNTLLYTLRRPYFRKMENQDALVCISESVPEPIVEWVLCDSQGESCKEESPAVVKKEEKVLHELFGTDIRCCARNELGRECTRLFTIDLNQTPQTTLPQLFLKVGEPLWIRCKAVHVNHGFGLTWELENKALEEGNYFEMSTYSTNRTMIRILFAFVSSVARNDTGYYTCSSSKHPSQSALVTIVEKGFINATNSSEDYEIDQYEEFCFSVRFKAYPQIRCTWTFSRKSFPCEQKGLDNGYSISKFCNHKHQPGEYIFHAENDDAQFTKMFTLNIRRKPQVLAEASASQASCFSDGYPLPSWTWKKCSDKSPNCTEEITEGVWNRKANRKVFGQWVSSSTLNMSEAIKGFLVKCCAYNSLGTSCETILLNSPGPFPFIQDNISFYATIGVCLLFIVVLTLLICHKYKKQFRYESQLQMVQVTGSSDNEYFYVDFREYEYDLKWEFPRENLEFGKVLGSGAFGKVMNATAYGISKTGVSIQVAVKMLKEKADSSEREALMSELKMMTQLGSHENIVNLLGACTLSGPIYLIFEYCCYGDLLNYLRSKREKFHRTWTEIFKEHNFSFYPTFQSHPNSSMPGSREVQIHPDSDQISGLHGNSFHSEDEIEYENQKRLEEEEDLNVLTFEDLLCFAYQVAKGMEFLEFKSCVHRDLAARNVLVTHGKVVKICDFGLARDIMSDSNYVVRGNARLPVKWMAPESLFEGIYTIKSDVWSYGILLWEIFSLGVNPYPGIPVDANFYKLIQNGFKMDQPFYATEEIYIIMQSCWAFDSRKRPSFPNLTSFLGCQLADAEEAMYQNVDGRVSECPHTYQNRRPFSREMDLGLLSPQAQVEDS

[18] = target: Tyrosine-protein kinase Mer (Homo sapiens) (UniProt Q12866); assay: Inhibition of human MER at 1 uM after 30 mins by fluorescence assay in presence of ATP
[19] = target: Ribosomal protein S6 kinase alpha-1 (Homo sapiens) (UniProt Q15418); assay: Inhibition of human RSK1 at 1 uM after 30 mins by fluorescence assay in presence of ATP
Sequence of Ribosomal protein S6 kinase alpha-1 (Homo sapiens) (Q15418 whole entry): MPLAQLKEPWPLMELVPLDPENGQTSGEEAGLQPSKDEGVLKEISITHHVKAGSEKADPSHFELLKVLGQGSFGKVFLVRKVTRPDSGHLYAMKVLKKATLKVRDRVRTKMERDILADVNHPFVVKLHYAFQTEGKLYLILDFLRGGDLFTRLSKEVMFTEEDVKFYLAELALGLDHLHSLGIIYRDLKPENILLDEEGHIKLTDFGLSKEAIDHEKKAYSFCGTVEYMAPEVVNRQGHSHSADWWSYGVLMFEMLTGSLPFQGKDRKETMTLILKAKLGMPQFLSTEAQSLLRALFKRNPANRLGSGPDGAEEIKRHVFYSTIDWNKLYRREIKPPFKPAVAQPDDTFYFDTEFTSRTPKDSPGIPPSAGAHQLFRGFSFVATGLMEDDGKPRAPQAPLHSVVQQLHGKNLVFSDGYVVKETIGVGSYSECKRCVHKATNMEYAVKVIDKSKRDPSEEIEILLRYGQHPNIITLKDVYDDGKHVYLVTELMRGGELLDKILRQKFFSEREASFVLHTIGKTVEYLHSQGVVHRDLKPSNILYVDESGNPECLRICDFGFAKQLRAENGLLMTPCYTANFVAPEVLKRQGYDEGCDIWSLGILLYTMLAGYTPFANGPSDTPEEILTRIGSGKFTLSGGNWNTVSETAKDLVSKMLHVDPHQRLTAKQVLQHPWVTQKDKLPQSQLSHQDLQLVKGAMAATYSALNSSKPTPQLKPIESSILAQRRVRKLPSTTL

[20] = target: T1, ALK tyrosine kinase receptor (Homo sapiens, UniProt Q9UM73); assay: Inhibition of human ALK at 1 uM after 30 mins by fluorescence assay in presence of ATP
Target sequence in this assay (Q9UM73 19-1620 limits assumed): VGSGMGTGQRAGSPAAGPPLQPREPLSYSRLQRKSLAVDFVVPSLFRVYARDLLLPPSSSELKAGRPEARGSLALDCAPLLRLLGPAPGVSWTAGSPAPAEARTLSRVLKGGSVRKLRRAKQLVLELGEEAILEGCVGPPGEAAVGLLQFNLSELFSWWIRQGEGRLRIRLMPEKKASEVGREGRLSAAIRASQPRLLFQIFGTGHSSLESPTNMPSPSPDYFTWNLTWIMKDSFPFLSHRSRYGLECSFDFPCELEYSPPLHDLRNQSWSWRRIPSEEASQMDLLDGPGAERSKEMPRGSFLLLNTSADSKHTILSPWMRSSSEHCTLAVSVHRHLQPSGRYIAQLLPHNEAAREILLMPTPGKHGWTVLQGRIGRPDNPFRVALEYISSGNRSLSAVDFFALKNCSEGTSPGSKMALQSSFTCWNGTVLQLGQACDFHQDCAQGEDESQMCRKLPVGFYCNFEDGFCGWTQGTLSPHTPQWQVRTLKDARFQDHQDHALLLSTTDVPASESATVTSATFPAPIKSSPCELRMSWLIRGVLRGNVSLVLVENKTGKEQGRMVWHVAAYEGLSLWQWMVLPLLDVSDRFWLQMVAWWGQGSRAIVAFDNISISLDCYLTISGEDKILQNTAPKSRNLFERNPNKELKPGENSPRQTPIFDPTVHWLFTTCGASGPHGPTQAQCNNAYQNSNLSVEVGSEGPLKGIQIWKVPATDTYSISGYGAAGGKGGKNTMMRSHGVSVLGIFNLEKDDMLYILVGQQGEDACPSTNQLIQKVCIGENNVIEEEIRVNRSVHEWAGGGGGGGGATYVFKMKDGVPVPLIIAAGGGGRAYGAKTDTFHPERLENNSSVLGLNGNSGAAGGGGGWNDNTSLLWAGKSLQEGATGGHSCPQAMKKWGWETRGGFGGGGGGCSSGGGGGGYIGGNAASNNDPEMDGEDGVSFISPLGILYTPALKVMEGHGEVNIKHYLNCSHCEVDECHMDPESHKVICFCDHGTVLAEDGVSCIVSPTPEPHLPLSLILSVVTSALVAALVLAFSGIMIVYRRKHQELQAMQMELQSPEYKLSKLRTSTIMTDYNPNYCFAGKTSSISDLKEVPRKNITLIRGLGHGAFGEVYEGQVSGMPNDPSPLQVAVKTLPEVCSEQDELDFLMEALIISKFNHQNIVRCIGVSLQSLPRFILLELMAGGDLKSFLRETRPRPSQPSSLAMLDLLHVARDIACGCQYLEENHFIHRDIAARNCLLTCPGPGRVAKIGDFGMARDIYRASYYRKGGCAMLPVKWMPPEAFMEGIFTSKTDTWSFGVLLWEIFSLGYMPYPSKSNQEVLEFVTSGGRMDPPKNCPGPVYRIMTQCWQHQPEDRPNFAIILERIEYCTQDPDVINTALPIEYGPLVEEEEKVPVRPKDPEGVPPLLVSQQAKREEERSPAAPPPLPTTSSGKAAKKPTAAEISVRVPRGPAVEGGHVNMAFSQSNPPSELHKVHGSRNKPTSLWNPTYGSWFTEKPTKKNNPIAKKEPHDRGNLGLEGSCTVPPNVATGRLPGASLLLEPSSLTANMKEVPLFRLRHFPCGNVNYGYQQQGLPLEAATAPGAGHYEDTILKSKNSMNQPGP

[21] = target: Insulin-like growth factor 1 receptor (Homo sapiens) (UniProt P08069); assay: Inhibition of human IGF1R at 1 uM after 30 mins by fluorescence assay in presence of ATP
[22] = target: Aurora kinase A (Homo sapiens) (UniProt O14965); assay: Inhibition of human Aurora A at 1 uM after 30 mins by fluorescence assay in presence of ATP
[23] = target: Serine/threonine-protein kinase Chk2 (Homo sapiens) (UniProt O96017); assay: Inhibition of human CHK2 at 1 uM after 30 mins by fluorescence assay in presence of ATP
[24] = target: Epidermal growth factor receptor (Homo sapiens) (UniProt P00533); assay: Inhibition of human EGFR at 1 uM after 30 mins by fluorescence assay in presence of ATP
[25] = target: Protein-tyrosine kinase 2-beta (Homo sapiens) (UniProt Q14289); assay: Inhibition of human PYK2 at 1 uM after 30 mins by fluorescence assay in presence of ATP
[26] = target: Aurora kinase B (Homo sapiens) (UniProt Q96GD4); assay: Inhibition of human Aurora B at 1 uM after 30 mins by fluorescence assay in presence of ATP
Sequence of Aurora kinase B (Homo sapiens) (Q96GD4 whole entry): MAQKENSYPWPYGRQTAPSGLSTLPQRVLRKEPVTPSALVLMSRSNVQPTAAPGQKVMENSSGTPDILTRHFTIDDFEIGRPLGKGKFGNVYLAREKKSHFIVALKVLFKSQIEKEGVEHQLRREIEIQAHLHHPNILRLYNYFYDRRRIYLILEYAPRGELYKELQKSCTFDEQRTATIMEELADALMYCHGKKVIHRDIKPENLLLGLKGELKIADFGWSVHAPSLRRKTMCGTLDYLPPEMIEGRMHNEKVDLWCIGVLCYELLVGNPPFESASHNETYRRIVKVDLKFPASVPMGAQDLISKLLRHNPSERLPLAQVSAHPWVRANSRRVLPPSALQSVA

[27] = target: Tyrosine-protein kinase receptor UFO (Homo sapiens) (UniProt P30530); assay: Inhibition of human AXL at 1 uM after 30 mins by fluorescence assay in presence of ATP
[28] = target: NUAK family SNF1-like kinase 1 (Homo sapiens) (UniProt O60285); assay: Inhibition of human ARK5 at 1 uM after 30 mins by fluorescence assay in presence of ATP
[29] = target: Serine/threonine-protein kinase 10 (Homo sapiens) (UniProt O94804); assay: Inhibition of human LOK at 1 uM after 30 mins by fluorescence assay in presence of ATP
[30] = target: Proto-oncogene tyrosine-protein kinase ROS (Homo sapiens) (UniProt P08922); assay: Inhibition of human ROS at 1 uM after 30 mins by fluorescence assay in presence of ATP
[31] = target: Serine/threonine-protein kinase TAO1 (Homo sapiens) (UniProt Q7L7X3); assay: Inhibition of human TAO1 at 1 uM after 30 mins by fluorescence assay in presence of ATP
[32] = target: Testis-specific serine/threonine-protein kinase 1 (Homo sapiens) (UniProt Q9BXA7); assay: Inhibition of human TSSK1 at 1 uM after 30 mins by fluorescence assay in presence of ATP
[33] = target: High affinity nerve growth factor receptor (Homo sapiens) (UniProt P04629); assay: Inhibition of human TRKA at 1 uM after 30 mins by fluorescence assay in presence of ATP
[34] = target: Tyrosine-protein kinase Yes (Homo sapiens) (UniProt P07947); assay: Inhibition of human YES at 1 uM after 30 mins by fluorescence assay in presence of ATP
[35] = target: Serine/threonine-protein kinase N2 (Homo sapiens) (UniProt Q16513); assay: Inhibition of human PRK2 at 1 uM after 30 mins by fluorescence assay in presence of ATP
[36] = target: Ephrin type-B receptor 1 (Homo sapiens) (UniProt P54762); assay: Inhibition of human EPHB1 at 1 uM after 30 mins by fluorescence assay in presence of ATP
[37] = target: Rho-associated protein kinase 2 (Homo sapiens) (UniProt O75116); assay: Inhibition of human ROCK2 at 1 uM after 30 mins by fluorescence assay in presence of ATP
[38] = target: Ephrin type-A receptor 1 (Homo sapiens) (UniProt P21709); assay: Inhibition of human EPHA1 at 1 uM after 30 mins by fluorescence assay in presence of ATP
[39] = test system: Mus musculus; assay: Toxicity in SCID mouse xenografted with human H3122 cells assessed as change in body weight at 25 mg/kg, po administered qd for 14 days measured during compound dosing; type: organism-based; conditions: in vivo, 336 h
[40] = test system: Mus musculus; assay: Toxicity in SCID mouse xenografted with human H3122 cells assessed as change in body weight at 50 mg/kg, po administered qd for 14 days measured during compound dosing; type: organism-based; conditions: in vivo, 336 h
[41] = target: T1, ALK tyrosine kinase receptor; assay: Inhibition of wild type ALK (unknown origin) after 30 mins by HTRF assay
[42] = target: ALK tyrosine kinase receptor (Homo sapiens, UniProt Q9UM73, L1196M); assay: Inhibition of ALK L1196M mutant (unknown origin) after 30 mins by HTRF assay
Sequence of ALK tyrosine kinase receptor (Homo sapiens, UniProt Q9UM73, L1196M) (Q9UM73 19-1620 L1196M limits assumed): as the sequence (Q9UM73 19-1620 limits assumed) above, with L1178M counted along it

[43] = target: EML4-ALK (Homo sapiens) (UniProt Q9UM73+Q9HC35); assay: Inhibition of EML4-ALK in human NCI-H3122 cells assessed as inhibition of cell proliferation after 72 hrs by SRB assay; type: cell-based
[44] = test system: BaF3; assay: Inhibition of ALK L1196M mutant in mouse BA/F3 cells assessed as inhibition of cell proliferation after 72 hrs by WST1 assay; type: cell-based
[45] = Metabolic stability of the compound in human liver microsomes assessed as compound remaining at 1 uM after 30 mins by LC/MS/MS analysis in the presence of NADPH; type: ADME; conditions: read-out: Stability
[46] = Metabolic stability of the compound in mouse liver microsomes assessed as compound remaining at 1 uM after 30 mins by LC/MS/MS analysis in the presence of NADPH; type: ADME; conditions: read-out: Stability

Sequence of CYP1A2 (P05177 whole entry): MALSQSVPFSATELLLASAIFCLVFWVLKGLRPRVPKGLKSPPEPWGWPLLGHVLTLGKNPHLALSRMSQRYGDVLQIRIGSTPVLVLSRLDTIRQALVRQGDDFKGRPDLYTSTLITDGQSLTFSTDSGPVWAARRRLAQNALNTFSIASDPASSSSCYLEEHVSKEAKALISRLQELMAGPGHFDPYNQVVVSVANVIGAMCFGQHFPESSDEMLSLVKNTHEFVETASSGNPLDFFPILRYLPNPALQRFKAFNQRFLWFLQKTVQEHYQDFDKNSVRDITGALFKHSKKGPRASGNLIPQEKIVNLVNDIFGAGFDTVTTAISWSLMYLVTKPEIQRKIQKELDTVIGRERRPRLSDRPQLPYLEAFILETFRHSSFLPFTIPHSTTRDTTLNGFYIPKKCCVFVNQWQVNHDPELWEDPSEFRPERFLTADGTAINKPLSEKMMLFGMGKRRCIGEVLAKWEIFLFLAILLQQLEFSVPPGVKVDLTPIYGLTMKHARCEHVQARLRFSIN

## COc1cc2c(cc1Nc1ncc(Cl)c(Nc3ccccc3S(=O)(=O)C(C)C)n1)CCC(N)C2(C)C (stereo unspecified)
[1]
  Tmax: 5.33 h
[2]
  inhibition at 10 µM: 9.5%
[3]
  inhibition at 10 µM: 38%
[4]
  inhibition at 10 µM: 31%
[5]
  inhibition at 10 µM: 97%
[6]
  inhibition at 10 µM: 72%
[7]
  Cmax: 582 ng/mL
[8]
  half-life: 570 min
[9]
  AUC(0-t): 8750 ng·h/mL
[10]
  AUC(0-inf): 10900 ng·h/mL
[11]
  TGI: Active
[12]
  TGI: Active
[13]
  inhibition: 100%
[14]
  inhibition: 100%
[15]
  inhibition: 100%
[16]
  inhibition: 100%
[17]
  inhibition: 100%
[18]
  inhibition: 100%
[19]
  inhibition: 100%
[20]
  inhibition: 100%
[21]
  inhibition: 100%
[22]
  inhibition: 99%
[23]
  inhibition: 99%
[24]
  inhibition: 99%
[25]
  inhibition: 98%
[26]
  inhibition: 97%
[27]
  inhibition: 97%
[28]
  inhibition: 96%
[29]
  inhibition: 96%
[30]
  inhibition: 96%
[31]
  inhibition: 96%
[32]
  inhibition: 96%
[33]
  inhibition: 95%
[34]
  inhibition: 95%
[35]
  inhibition: 93%
[36]
  inhibition: 92%
[37]
  inhibition: 92%
[38]
  inhibition: 91%
[39]
  Activity: Non-toxic
[40]
  Activity: Non-toxic
[41]
  IC50: 0.7 nM
[42]
  IC50: 1.5 nM
[43]
  CC50: 16 nM
[44]
  CC50: 62 nM
[45]
  remaining at 0.5 h, 1 µM: 56%
[46]
  remaining at 0.5 h, 1 µM: 23%
